These results are taken from patent publication US9150566B2, “2-(1,2,3-triazol-2-yl)benzamide and 3-(1,2,3-triazol-2-YL)picolinamide derivatives as orexin receptor antagonists” (ACTELION PHARMACEUTICALS LTD., priority 2011, dated 2015).

Read-outs that look alike come from different tables or passages of the source. Bounds are passed on as bounds.

One series has as its target CYP3A4 (Homo sapiens (Human), UniProt P08684). As to the kind of experiment: CYP3A4 inhibition assay (human liver microsomes, testosterone 6β-hydroxylation). Particulars: read-out: CYP3A4 IC50, 40 μM testosterone.
The next series addresses human orexin-2 receptor (Homo sapiens (Human), UniProt O43614). The series can be described thus: In vitro intracellular calcium measurements (FLIPR), antagonistic activity on orexin-2 receptor. The note with it: read-out: IC50 OX2. The series is classed as cell-based. The essentials:
(§1)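 Recombinant CHO lines bearing human OX1 or OX2 receptors received test antagonist 120 min before agonist addition.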

Another series addresses human orexin-1 receptor (Homo sapiens (Human), UniProt O43613). The series can be described thus: In vitro intracellular calcium measurements (FLIPR), antagonistic activity on orexin-1 receptor. The format is cell-based. Particulars: read-out: IC50 OX1. The gist of the method: as §1
(In general: Calcium flux is commonly read through the fluorescence of an indicator in the cells.)

A short description of series [1]: Measurement of brain and systemic concentration after oral administration. The note with it: rat, brain, male wistar rats, oral 100 mg/kg, read-out: brain concentration [B]; for concentration at 1 h: formulated in 10% PEG400/90% MC0.5%, sampled at 1 h; for concentration at 3 h: formulated in 100% PEG400, sampled at 3 h. The series is classed as in vivo. The method, then: Measurement of Brain and Systemic Concentration after Oral Administration:
In order to assess brain penetration, the concentration of the compound is measured in plasma ([P]), and brain ([B]), sampled 1 h or 3 h (or at different time points) following oral administration (100 mg/kg) to male wistar rats (n=3). The compounds are formulated either in 100% PEG 400 or 10% PEG400/90% MC0.5%. Samples are collected in the same animal at the same time point (+/−5 min). Blood is sampled from the vena cava caudalis into containers with EDTA as anticoagulant and centrifuged to yield plasma. Brain is sampled after cardiac perfusion of 10 mL NaCl 0.9% and homogenized into one volume of cold phosphate buffer (pH 7.4). All samples are extracted with MeOH and analyzed by LC-MS/MS. Concentrations are determined with the help of calibration curves. Inter-individual variations between the three rats were limited. Particular compounds of the present invention tested as described above gave brain concentrations ([B]) as shown in Table 16 below; wherein the compounds of Examples 11-37 and 94 were formulated in 100% PEG400 and sampled at 3 h. All other examples below were formulated in 10% PEG400/90% MC0.5% and sampled at 1 h.

Where [2] appears, read: CHO cells expressing human orexin-2 receptor, FLIPR, 3 nM orexin-A agonist, 120 min antagonist incubation, geometric mean if determined several times.
[3] abbreviates: CHO cells expressing human orexin-1 receptor, FLIPR, 3 nM orexin-A agonist, 120 min antagonist incubation, geometric mean if determined several times.

One may read the IC50 as the concentration at which inhibition is half-maximal.

Sequence of CYP3A4 (P08684 whole entry): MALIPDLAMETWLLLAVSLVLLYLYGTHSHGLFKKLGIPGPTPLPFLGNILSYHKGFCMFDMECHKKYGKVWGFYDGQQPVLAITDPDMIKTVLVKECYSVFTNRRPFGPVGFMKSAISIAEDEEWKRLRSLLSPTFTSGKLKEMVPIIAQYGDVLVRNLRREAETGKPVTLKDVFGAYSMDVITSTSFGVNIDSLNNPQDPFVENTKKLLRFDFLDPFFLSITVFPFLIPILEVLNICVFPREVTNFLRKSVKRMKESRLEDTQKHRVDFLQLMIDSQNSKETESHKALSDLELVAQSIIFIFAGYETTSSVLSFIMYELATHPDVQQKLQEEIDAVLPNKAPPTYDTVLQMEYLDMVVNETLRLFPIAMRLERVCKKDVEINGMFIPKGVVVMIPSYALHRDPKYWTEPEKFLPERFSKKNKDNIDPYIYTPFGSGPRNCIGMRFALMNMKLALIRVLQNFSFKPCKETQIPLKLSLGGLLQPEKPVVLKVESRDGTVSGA
Sequence of human orexin-2 receptor (O43614 whole entry): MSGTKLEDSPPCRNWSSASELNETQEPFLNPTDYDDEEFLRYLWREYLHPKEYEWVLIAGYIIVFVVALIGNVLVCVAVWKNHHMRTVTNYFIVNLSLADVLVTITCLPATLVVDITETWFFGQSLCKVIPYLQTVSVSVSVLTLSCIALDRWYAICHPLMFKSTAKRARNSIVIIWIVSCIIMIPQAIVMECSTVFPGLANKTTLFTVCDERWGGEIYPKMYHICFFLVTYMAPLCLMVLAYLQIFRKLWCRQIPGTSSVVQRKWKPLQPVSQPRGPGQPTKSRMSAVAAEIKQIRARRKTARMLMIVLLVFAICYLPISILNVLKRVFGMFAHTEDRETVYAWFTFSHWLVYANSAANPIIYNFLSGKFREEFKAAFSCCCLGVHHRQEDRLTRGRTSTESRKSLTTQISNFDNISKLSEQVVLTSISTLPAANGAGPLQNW
Sequence of human orexin-1 receptor (O43613 whole entry): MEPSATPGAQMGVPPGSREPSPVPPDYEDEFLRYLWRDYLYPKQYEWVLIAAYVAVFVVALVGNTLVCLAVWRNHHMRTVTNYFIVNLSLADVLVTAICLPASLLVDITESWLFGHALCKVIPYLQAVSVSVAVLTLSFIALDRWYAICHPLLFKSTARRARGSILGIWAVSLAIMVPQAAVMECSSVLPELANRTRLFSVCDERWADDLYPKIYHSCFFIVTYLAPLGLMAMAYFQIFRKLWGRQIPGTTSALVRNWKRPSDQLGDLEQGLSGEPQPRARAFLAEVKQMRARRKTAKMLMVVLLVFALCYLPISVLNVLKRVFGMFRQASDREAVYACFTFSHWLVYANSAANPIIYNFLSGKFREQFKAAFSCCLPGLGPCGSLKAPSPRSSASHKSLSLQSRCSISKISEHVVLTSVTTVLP

Consider `O=C(c1ccc(C(F)(F)F)cc1-n1nccn1)N1CCOC[C@H]1Cc1cccc(-n2nccn2)c1` [Example 76, [(R)-3-(3-[1,2,3]Triazol-2-yl-benzyl)-morpholin-4-yl]-(2-[1,2,3]triazol-2-yl-4-trifluoromethyl-phenyl)-methanone], for which the IC50 at CYP3A4 amounted to 7.5 µM; at human orexin-2 receptor (setting [2]), 0.133 µM; at human orexin-1 receptor (setting [3]), 0.002 µM. In addition, the concentration at 1 h in series [1] was found to be 1380 ng/g.
Take `O=C(c1ccccc1-n1nccn1)N1CCOC[C@H]1Cc1cccc(-n2cccn2)c1` [Example 16, [(R)-3-(3-Pyrazol-1-yl-benzyl)-morpholin-4-yl]-(2-[1,2,3]triazol-2-yl-phenyl)-methanone]: the IC50 at CYP3A4 was determined as 43 µM; on human orexin-2 receptor (setting [2]) it was 1.82 µM; at human orexin-1 receptor (setting [3]), 0.03 µM. In addition, the concentration at 3 h in series [1] was 160 ng/g.
As for `O=C(c1cc(Cl)ccc1-n1nccn1)N1CCOC[C@H]1Cc1cccc(-n2nccn2)c1` [Example 30, (5-Chloro-2-[1,2,3]triazol-2-yl-phenyl)-[(R)-3-(3-[1,2,3]triazol-2-yl-benzyl)-morpholin-4-yl]-methanone], the IC50 at CYP3A4 stood at 17 µM; at human orexin-2 receptor (setting [2]), 0.199 µM; on human orexin-1 receptor (setting [3]), 0.004 µM. Besides, the concentration at 3 h in series [1] was 1870 ng/g.
On to `Cc1ccc(-n2nccn2)c(C(=O)N2CCOC[C@H]2Cc2cccc(-n3cccn3)c2)c1F` [Example 21, (2-Fluoro-3-methyl-6-[1,2,3]triazol-2-yl-phenyl)-[(R)-3-(3-pyrazol-1-yl-benzyl)-morpholin-4-yl]-methanone], for which the IC50 is 20 µM on CYP3A4, 1.65 µM at human orexin-2 receptor (setting [2]) and 0.002 µM at human orexin-1 receptor (setting [3]). Also, the concentration at 3 h in series [1] amounted to 36 ng/g.
Regarding `Cc1ccc(C(=O)N2CCOC[C@H]2Cc2cc(-n3nccn3)ccc2F)c(-n2nccn2)c1` [Example 62, [(R)-3-(2-Fluoro-5-[1,2,3]triazol-2-yl-benzyl)-morpholin-4-yl]-(4-methyl-2-[1,2,3]triazol-2-yl-phenyl)-methanone], the IC50 at CYP3A4 worked out at 29 µM; at human orexin-2 receptor (setting [2]), 0.404 µM. The concentration at 1 h in series [1] came to 4420 ng/g.
As for `Cc1ccc(C(=O)N2CCOC[C@H]2Cc2cc(-c3ncccn3)ccc2F)c(-n2nccn2)c1` [Example 156, [(R)-3-(2-Fluoro-5-pyrimidin-2-yl-benzyl)-morpholin-4-yl]-(4-methyl-2-[1,2,3]triazol-2-yl-phenyl)-methanone], the figures for the IC50 at CYP3A4 and on human orexin-2 receptor (setting [2]) were over 50 µM and 0.571 µM, respectively. Also, the concentration at 1 h in series [1] was 613 ng/g.
For the compound `O=C(c1ccc(C(F)(F)F)cc1-n1nccn1)N1CCOC[C@H]1Cc1cccc(-c2ncon2)c1` [Example 87, [(R)-3-(3-[1,2,4]Oxadiazol-3-yl-benzyl)-morpholin-4-yl]-(2-[1,2,3]triazol-2-yl-4-trifluoromethyl-phenyl)-methanone], the values for the IC50 on CYP3A4 and at human orexin-2 receptor (setting [2]) were 15 µM and 0.227 µM, respectively. Also, the concentration at 1 h in series [1] is 1880 ng/g.
For the compound `Cc1ccc(-n2nccn2)c(C(=O)N2CCOC[C@H]2Cc2cccc(-n3nccn3)c2)c1` [Example 11, (5-Methyl-2-[1,2,3]triazol-2-yl-phenyl)-[(R)-3-(3-[1,2,3]triazol-2-yl-benzyl)-morpholin-4-yl]-methanone], the IC50 came out at 0.196 µM on human orexin-2 receptor and 0.002 µM at human orexin-1 receptor. Besides, in series [1], the concentration at 3 h is 46 ng/g.
Regarding `COc1ccc(C[C@@H]2COCCN2C(=O)c2ccccc2-n2nccn2)cc1-c1nccs1` [Example 8, [(R)-3-(4-Methoxy-3-thiazol-2-yl-benzyl)-morpholin-4-yl]-(2-[1,2,3]triazol-2-yl-phenyl)-methanone], the IC50 on CYP3A4 is 3.2 µM; on human orexin-2 receptor (setting [2]), 0.335 µM; on human orexin-1 receptor (setting [3]) it was 0.001 µM.
Regarding `C[C@@H]1CN(C(=O)c2ccc(Cl)cc2-n2nccn2)[C@H](Cc2cccc(-c3ncccn3)c2)CO1` [Example 114, (4-Chloro-2-[1,2,3]triazol-2-yl-phenyl)-[(2R,5R)-2-methyl-5-(3-pyrimidin-2-yl-benzyl)-morpholin-4-yl]-methanone], the 50% inhibitory concentration (IC50) is 35 µM at CYP3A4, 0.083 µM on human orexin-2 receptor (setting [2]) and 0.001 µM at human orexin-1 receptor (setting [3]).
